Measured values reported in patent publication US6337411B2, “Stromelysin inhibitors” (Aventis Pharma Deutschland GmbH, priority 1999, dated 2002).

How the values were obtained:
[1] = target: T1, catalytic domain of human stromelysin (MMP-3) (Homo sapiens, UniProt P08254); test: Enzymatic activity of the catalytic domain of human stromelysin (fluorogenic substrate); assay type: biochemical; settings: inhibitor concentration giving 50% inhibition of the enzyme; pH 6.5 buffer; 15 minutes preincubation; fluorescence 328 nm (ex)/393 nm (em)
T1 construct: enzymatic activity of the catalytic domain of human stromelysin; made in house
T1 sequence (P08254 100-272 limits assumed): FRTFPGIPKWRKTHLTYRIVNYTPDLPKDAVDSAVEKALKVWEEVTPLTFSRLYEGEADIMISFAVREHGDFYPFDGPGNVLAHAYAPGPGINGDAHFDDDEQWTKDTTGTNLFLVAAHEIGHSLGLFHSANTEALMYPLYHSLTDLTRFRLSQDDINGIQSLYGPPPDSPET
Procedure: Preparation and determination of the enzymatic activity of the catalytic domain of human stromelysin
The enzyme stromelysin (MMP-3) was prepared according to Ye et al. (Biochemistry; 31 (1992) pages 11231-11235). For the measurement of the enzyme activity or of the enzyme inhibitor action, 70 μl of buffer solution and 10 μl of enzyme solution were incubated for 15 minutes with 10 μl of a 10% strength (v/v) aqueous dimethyl sulfoxide solution, which optionally contained the enzyme inhibitor. After addition of 10 μl of a 10% strength (v/v) aqueous dimethyl sulfoxide solution which contained I mmol/l of the substrate, the enzyme reaction was monitored by fluorescence spectroscopy (328 nm (ex)/393 nm (em)). The enzyme activity is shown as the extinction increase/minute. The IC50 value was determined as that inhibitor concentration which in each case led to a 50% inhibition of the enzyme.
The buffer solution contained 0.05% Brij (Sigma, Deisenhofen, Germany) and 0.1 mol/l of tris/HCl, 0.1 mol/l of NaCl, 0.01 mol/l of CaCl2 and 0.1 mol/l of piperazine-N,N′-bis[2-ethanesulfonic acid] (pH=6.5).
The enzyme solution contained 5 μg/ml of an enzyme domain prepared according to Ye et al. The substrate solution contained 1 mmol/l of the fluorogenic substrate (7-methoxycoumarin-4-yl)acetyl-Pro-Leu-Gly-Leu-3-(2′,4′-dinitrophenyl)-L-2,3-diaminopropionyl-Ala-Arg-NH2 (Bachem, Heidelberg, Germany).

[2] = Stability of isolated stromemycin in solution (properties); assay type: physicochemical; settings: neutral medium vs strongly acidic and alkaline solution
Excerpt: (§1) The stromemycin obtained has the following properties: […]

[3] = Solubility of isolated stromemycin (properties); assay type: physicochemical; settings: solvents methanol, DMSO
Excerpt: as §1

IC50 [1]: 115 µM
SMILES: CCCC=CC=CCCc1cc(OC(=O)c2c(CCC=CC=CCCC)cc(O)c(C3OC(CO)C(O)C(O)C3O)c2O)cc(O)c1C(=O)O (stereo not drawn) [stromemycin]
Stability [2]: stable in neutral medium, but unstable in strongly acidic and alkaline solution
Solubility [3]: soluble in methanol, dimethyl sulfoxide (DMSO)
